Results taken from patent US4740233A, “Substituted 1,2,4-triazolo[1,5-a]-pyrimidine-2-sulfonamides and compositions and methods of controlling undesired vegetation and suppressing the nitrification of ammonium nitrogen in soil” (The Dow Chemical Company, priority 1986, dated 1988).

Tests used:
cotton = assay: Preemergent control of plant species; format: in vivo, Gossypium spp.; settings: Gossypium hirsutum, pre-emergence, 336 h; 0.25 lb/acre; read-out: percent preemergent control
Summary of the method: (§1)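 Growth reduction relative to untreated plants of the same species, assessed two weeks after treatment, defines the control value. Compositions, mostly aqueous emulsions, were deposited uniformly on seeded greenhouse soil beds at the tabulated rates, with a water-treated bed as reference.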

rape = assay: Preemergent control of plant species; format: in vivo, Brassica napus; settings: Brassica napus, pre-emergence, 336 h; 0.25 lb/acre; read-out: percent preemergent control
Summary of the method: as §1

soybean = assay: Preemergent control of plant species; format: in vivo, Glycine max.; settings: Glycine max, pre-emergence, 336 h; 0.25 lb/acre; read-out: percent preemergent control
Summary of the method: as §1

sugar beet = assay: Preemergent control of plant species; format: in vivo, Beta saccharifera; settings: Beta vulgaris, pre-emergence, 336 h; 0.25 lb/acre; read-out: percent preemergent control
Summary of the method: as §1

jimsonweed = assay: Preemergent control of plant species; format: in vivo, Datura stramonium; settings: Datura stramonium, pre-emergence, 336 h; 0.25 lb/acre; read-out: percent preemergent control
Summary of the method: as §1

annual morning glory = assay: Preemergent control of plant species; format: in vivo, Ipomoea spp.; settings: Ipomoea, pre-emergence, 336 h; 0.25 lb/acre; read-out: percent preemergent control
Summary of the method: as §1

pigweed = assay: Preemergent control of plant species; format: in vivo, Amaranthus spp.; settings: Amaranthus retroflexus, pre-emergence, 336 h; 0.25 lb/acre; read-out: percent preemergent control
Method: (§2) The seeds of various species of plants were planted in beds of good agricultural soil in a greenhouse. A number of compositions of the present invention, generally in the nature of an aqueous emulsion, were applied at rates listed in the table so as to deposit a predetermined amount of active ingredients uniformly throughout the surface of the bed. Another seed bed was treated only with water to serve as a control. After treatment the seed beds were maintained for two weeks under greenhouse conditions conducive for good plant growth and watered as necessary. Control refers to the reduction in growth compared to the observed results of the same untreated species.

velvetleaf = assay: Preemergent control of plant species; format: in vivo, Abutilon theophrasti; settings: Abutilon theophrasti, pre-emergence, 336 h; 0.25 lb/acre; read-out: percent preemergent control
Summary of the method: as §1

corn = assay: Preemergent control of plant species; format: in vivo, Zea mays; settings: Zea mays, pre-emergence, 336 h; 0.25 lb/acre; read-out: percent preemergent control
Summary of the method: as §1

rice = assay: Preemergent control of plant species; format: in vivo, Oryza sativa; settings: Oryza sativa, pre-emergence, 336 h; 0.25 lb/acre; read-out: percent preemergent control
Summary of the method: as §1

sorghum = assay: Preemergent control of plant species; format: in vivo, Sorghum vulgare; settings: Sorghum, pre-emergence, 336 h; 0.25 lb/acre; read-out: percent preemergent control
Summary of the method: as §1

wheat = assay: Preemergent control of plant species; format: in vivo, Triticum aestivum; settings: Triticum aestivum, pre-emergence, 336 h; 0.25 lb/acre; read-out: percent preemergent control
Summary of the method: as §1

barnyardgrass = assay: Preemergent control of plant species; format: in vivo, Echinochloa crusgalli; settings: Echinochloa crus-galli, pre-emergence, 336 h; 0.25 lb/acre; read-out: percent preemergent control
Summary of the method: as §1

crabgrass = assay: Preemergent control of plant species; format: in vivo, Digitaria spp.; settings: Digitaria sanguinalis, pre-emergence, 336 h; 0.25 lb/acre; read-out: percent preemergent control
Method: as §2

johnson grass = assay: Preemergent control of plant species; format: in vivo, Sorghum halepense; settings: Sorghum halepense, pre-emergence, 336 h; 0.25 lb/acre; read-out: percent preemergent control
Summary of the method: as §1

wild oats = assay: Preemergent control of plant species; format: in vivo; settings: Avena fatua, pre-emergence, 336 h; 0.25 lb/acre; read-out: percent preemergent control
Summary of the method: as §1

yellow foxtail = assay: Preemergent control of plant species; format: in vivo, Setaria lutescens; settings: Setaria, pre-emergence, 336 h; 0.25 lb/acre; read-out: percent preemergent control
Summary of the method: as §1

yellow nutsedge = assay: Preemergent control of plant species; format: in vivo, Cyperus esculentus; settings: Cyperus, pre-emergence, 336 h; 0.25 lb/acre; read-out: percent preemergent control
Summary of the method: as §1

[1] = system: nitrification of ammonium nitrogen; assay: Suppression of nitrification of ammonium nitrogen in soil; settings: 27° C.
Summary of the method: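 Soil (20 g) moistened to its 1/3 bar tension value, mixed with test chemical and incubated sealed for two weeks at 27° C. Nitrate extracted with ammonium sulfate solution and measured by nitrate-specific ion electrode; value given as % NH4-N remaining.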

Compound	plant injury at 280.212 g/ha (cotton)	plant injury at 280.212 g/ha (rape)	plant injury at 280.212 g/ha (soybean)	plant injury at 280.212 g/ha (sugar beet)	pest or weed control at 280.212 g/ha (jimsonweed)	pest or weed control at 280.212 g/ha (annual morning glory)	pest or weed control at 280.212 g/ha (pigweed)	pest or weed control at 280.212 g/ha (velvetleaf)	plant injury at 280.212 g/ha (corn)	plant injury at 280.212 g/ha (rice)	plant injury at 280.212 g/ha (sorghum)	plant injury at 280.212 g/ha (wheat)	pest or weed control at 280.212 g/ha (barnyardgrass)	pest or weed control at 280.212 g/ha (crabgrass)	pest or weed control at 280.212 g/ha (johnson grass)	pest or weed control at 280.212 g/ha (wild oats)	pest or weed control at 280.212 g/ha (yellow foxtail)	pest or weed control at 280.212 g/ha (yellow nutsedge)	further results
Cc1nc2nc(S(=O)(=O)Nc3ccccc3C(F)(F)F)nn2c(C)c1C [Compound 112]	80%	85%	0%	99%	0%	80%	90%	20%	50%	25%	20%	0%	0%	97%	30%	90%	0%	90%	% NH4-N Remaining After 2 Weeks Incubation ([1]; 0.06 ppm): 31%; % NH4-N Remaining After 2 Weeks Incubation ([1]; 0.25 ppm): 53%; % NH4-N Remaining After 2 Weeks Incubation ([1]; 1 ppm): 65%; % NH4-N Remaining After 2 Weeks Incubation ([1]; 4 ppm): 72%
Cc1cc(C)n2nc(S(=O)(=O)Nc3cccc(Cl)c3Cl)nc2n1 [Compound 19]	90%	95%	20%	90%	0%	50%	90%	70%	0%	20%	0%	0%	0%	20%	0%	0%	0%	40%	
